Measurements published in PubChem BioAssay (NCI).
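Following 48 hours of exposure in 96-well plates, responses at five concentrations were used to interpolate endpoints linearly. GI50 is the concentration that inhibits growth by half. Definition used: TGI = concentration required for complete inhibition of growth.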

Tests used:
Assay in all cases: NCI anticancer screen, dose series, 48 h
NCI-H226 lung = system: NCI-H226 lung
NCI-H23 lung = system: NCI-H23 lung
NCI-H460 lung = system: NCI-H460 lung
NCI-H522 lung = system: NCI-H522 lung
NCI/ADR-RES ovarian = system: NCI/ADR-RES ovarian
OVCAR-3 ovarian = system: OVCAR-3 ovarian
OVCAR-4 ovarian = system: OVCAR-4 ovarian
OVCAR-5 ovarian = system: OVCAR-5 ovarian
OVCAR-8 ovarian = system: OVCAR-8 ovarian
PC-3 prostate = system: PC-3 prostate
RPMI-8226 leukemia = system: RPMI-8226 leukemia
RXF 393 renal = system: RXF 393 renal
SF-268 CNS = system: SF-268 CNS
SF-295 CNS = system: SF-295 CNS
SF-539 CNS = system: SF-539 CNS
SK-MEL-2 melanoma = system: SK-MEL-2 melanoma
SK-MEL-28 melanoma = system: SK-MEL-28 melanoma
SK-MEL-5 melanoma = system: SK-MEL-5 melanoma
SK-OV-3 ovarian = system: SK-OV-3 ovarian
SN12C renal = system: SN12C renal
SNB-19 CNS = system: SNB-19 CNS
SNB-75 CNS = system: SNB-75 CNS
SR leukemia = system: SR leukemia
SW-620 colon = system: SW-620 colon
T-47D breast = system: T-47D breast
TK-10 renal = system: TK-10 renal
U251 CNS = system: U251 CNS
UACC-257 melanoma = system: UACC-257 melanoma
UO-31 renal = system: UO-31 renal

With CC(=O)N1CCN([C@H]2CCC[C@@H](NC(=O)c3cc4c(F)ccc(C)c4[nH]3)C2)CC1 the TGI (NCI-H226 lung) was > 100 µM, the GI50 (NCI-H23 lung) was 20.3 µM and the TGI (NCI-H23 lung) was > 100 µM. For the same compound, the GI50 (NCI-H460 lung) was 18.3 µM, the TGI (NCI-H460 lung) was > 100 µM and the GI50 (NCI-H522 lung) was 10.8 µM. For the same compound, the TGI (NCI-H522 lung) was > 100 µM, the GI50 (NCI/ADR-RES ovarian) was 69.9 µM and the TGI (NCI/ADR-RES ovarian) was > 100 µM. For the same compound, the GI50 (OVCAR-3 ovarian) was 42.9 µM, the TGI (OVCAR-3 ovarian) was > 100 µM and the GI50 (OVCAR-4 ovarian) was 11.3 µM. For the same compound, the TGI (OVCAR-4 ovarian) was > 100 µM, the GI50 (OVCAR-5 ovarian) was 39.9 µM and the TGI (OVCAR-5 ovarian) was > 100 µM. The GI50 (OVCAR-8 ovarian) was 46.5 µM, the TGI (OVCAR-8 ovarian) was > 100 µM and the GI50 (PC-3 prostate) was 26.1 µM. The TGI (PC-3 prostate) was > 100 µM, the GI50 (RPMI-8226 leukemia) was 24.9 µM and the TGI (RPMI-8226 leukemia) was > 100 µM. It also gave a GI50 (RXF 393 renal) of 2.17 µM, a TGI (RXF 393 renal) of 9.61 µM and a GI50 (SF-268 CNS) of 23 µM. For the same compound, the TGI (SF-268 CNS) was > 100 µM, the GI50 (SF-295 CNS) was 10.8 µM and the TGI (SF-295 CNS) was > 100 µM. The GI50 (SF-539 CNS) was 13.8 µM, the TGI (SF-539 CNS) was > 100 µM and the GI50 (SK-MEL-2 melanoma) was 34.9 µM. For the same compound, the TGI (SK-MEL-2 melanoma) was > 100 µM, the GI50 (SK-MEL-28 melanoma) was 13.5 µM and the TGI (SK-MEL-28 melanoma) was 29 µM. For the same compound, the GI50 (SK-MEL-5 melanoma) was 15.1 µM, the TGI (SK-MEL-5 melanoma) was 28.5 µM and the GI50 (SK-OV-3 ovarian) was 37.2 µM. The TGI (SK-OV-3 ovarian) was > 100 µM, the GI50 (SN12C renal) was 21.9 µM and the TGI (SN12C renal) was > 100 µM. The GI50 (SNB-19 CNS) was 33.3 µM, the TGI (SNB-19 CNS) was > 100 µM and the GI50 (SNB-75 CNS) was 5.43 µM. It also gave a TGI (SNB-75 CNS) of 68.1 µM, a GI50 (SR leukemia) of 14 µM and a TGI (SR leukemia) of 81 µM. The GI50 (SW-620 colon) was 85.1 µM, the TGI (SW-620 colon) was > 100 µM and the GI50 (T-47D breast) was 25.2 µM. The TGI (T-47D breast) was > 100 µM, the GI50 (TK-10 renal) was 18.7 µM and the TGI (TK-10 renal) was > 100 µM. The GI50 (U251 CNS) was 32.1 µM, the TGI (U251 CNS) was > 100 µM and the GI50 (UACC-257 melanoma) was 13.6 µM. It also gave a TGI (UACC-257 melanoma) of 27.8 µM, a GI50 (UO-31 renal) of 1.78 µM and a TGI (UO-31 renal) of 3.91 µM.
